Test results as given in ChEMBL document CHEMBL1134098, “Bioisosteric determinants for subtype selectivity of ligands for heteromeric GABA(A) receptors” (Bioorg Med Chem Lett, 2001).

How the values were obtained:
[1] = biological target: T1, GABA-A receptor; alpha-1/beta-3/gamma-2 (Homo sapiens, UniProt P14867+P18507+P28472); test: Effective agonist dose for human Gamma-aminobutyric acid A receptor alpha-1-beta-3-gamma-2 expressed in Xenopus oocytes; type: functional, cell-based, Oocyte
T1 sequence (P14867 whole entry): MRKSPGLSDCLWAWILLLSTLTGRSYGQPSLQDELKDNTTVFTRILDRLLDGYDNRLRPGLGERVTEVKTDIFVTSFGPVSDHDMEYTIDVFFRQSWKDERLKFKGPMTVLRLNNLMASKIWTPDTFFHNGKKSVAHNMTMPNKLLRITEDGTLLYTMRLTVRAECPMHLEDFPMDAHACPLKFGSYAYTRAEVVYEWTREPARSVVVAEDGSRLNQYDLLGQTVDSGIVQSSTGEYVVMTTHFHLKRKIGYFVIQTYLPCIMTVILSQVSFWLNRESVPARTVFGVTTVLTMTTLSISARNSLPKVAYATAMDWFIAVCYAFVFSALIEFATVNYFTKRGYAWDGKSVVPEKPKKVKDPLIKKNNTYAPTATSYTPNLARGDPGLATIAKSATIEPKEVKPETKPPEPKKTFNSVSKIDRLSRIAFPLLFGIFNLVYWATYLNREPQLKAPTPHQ
T1 sequence (P18507 whole entry): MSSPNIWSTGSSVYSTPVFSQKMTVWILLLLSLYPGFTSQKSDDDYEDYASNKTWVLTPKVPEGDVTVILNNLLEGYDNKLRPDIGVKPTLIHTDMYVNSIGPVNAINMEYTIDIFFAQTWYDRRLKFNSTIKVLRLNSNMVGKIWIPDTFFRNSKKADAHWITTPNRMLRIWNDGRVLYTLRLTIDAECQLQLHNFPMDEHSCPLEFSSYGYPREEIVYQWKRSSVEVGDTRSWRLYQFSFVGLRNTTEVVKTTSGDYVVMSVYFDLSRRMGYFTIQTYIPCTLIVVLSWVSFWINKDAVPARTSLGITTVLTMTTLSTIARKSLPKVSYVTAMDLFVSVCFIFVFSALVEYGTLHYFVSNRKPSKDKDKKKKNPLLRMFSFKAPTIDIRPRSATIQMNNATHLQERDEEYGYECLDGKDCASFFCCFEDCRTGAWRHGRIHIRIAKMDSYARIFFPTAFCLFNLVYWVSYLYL
T1 sequence (P28472 whole entry): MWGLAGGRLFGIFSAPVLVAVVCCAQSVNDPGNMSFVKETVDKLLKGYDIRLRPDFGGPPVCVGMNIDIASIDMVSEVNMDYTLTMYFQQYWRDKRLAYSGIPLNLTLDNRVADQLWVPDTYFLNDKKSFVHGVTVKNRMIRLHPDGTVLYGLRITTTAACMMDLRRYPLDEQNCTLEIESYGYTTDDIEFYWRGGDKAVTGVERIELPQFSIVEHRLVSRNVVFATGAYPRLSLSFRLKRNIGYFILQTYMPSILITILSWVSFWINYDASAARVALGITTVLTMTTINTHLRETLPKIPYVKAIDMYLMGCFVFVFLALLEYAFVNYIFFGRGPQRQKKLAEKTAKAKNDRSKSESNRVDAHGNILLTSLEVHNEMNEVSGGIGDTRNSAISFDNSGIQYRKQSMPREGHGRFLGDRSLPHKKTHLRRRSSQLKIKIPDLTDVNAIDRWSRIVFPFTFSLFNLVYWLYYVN

[2] = biological target: T2, GABA-A receptor; alpha-5/beta-3/gamma-2 (Homo sapiens, UniProt P18507+P28472+P31644); test: Effective agonist dose for human Gamma-aminobutyric acid A receptor alpha-5-beta-3-gamma-2 expressed in Xenopus oocytes; type: functional, cell-based, Oocyte
T2 sequence (P18507 whole entry): T1 sequence (P18507 whole entry)
T2 sequence (P28472 whole entry): T1 sequence (P28472 whole entry)
T2 sequence (P31644 whole entry): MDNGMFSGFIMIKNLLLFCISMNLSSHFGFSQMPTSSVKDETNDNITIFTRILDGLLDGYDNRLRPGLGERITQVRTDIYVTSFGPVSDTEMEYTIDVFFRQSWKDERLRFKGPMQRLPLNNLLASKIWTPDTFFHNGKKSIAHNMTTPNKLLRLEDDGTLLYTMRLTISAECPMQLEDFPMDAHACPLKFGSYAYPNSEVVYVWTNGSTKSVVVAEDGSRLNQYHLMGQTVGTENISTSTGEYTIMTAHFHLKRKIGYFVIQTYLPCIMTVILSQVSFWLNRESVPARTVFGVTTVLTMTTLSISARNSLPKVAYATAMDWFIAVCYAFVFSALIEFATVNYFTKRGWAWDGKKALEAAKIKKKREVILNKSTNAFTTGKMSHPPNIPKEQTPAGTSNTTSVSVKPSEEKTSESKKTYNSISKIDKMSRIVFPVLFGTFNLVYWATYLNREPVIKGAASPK

[3] = biological target: GABA-A receptor; alpha-1/beta-3/gamma-2 (Homo sapiens) (UniProt P14867+P18507+P28472); test: Maximal response relative to Gamma-aminobutyric acid A against human Gamma-aminobutyric-acid A receptor alpha-1-beta-3-gamma-2 expressed in Xenopus oocytes; type: functional, cell-based; settings: Oocyte
[4] = biological target: GABA-A receptor; alpha-3/beta-3/gamma-2 (Homo sapiens) (UniProt P18507+P28472+P34903); test: Maximal response relative to Gamma-aminobutyric acid A against human Gamma-aminobutyric-acid A receptor alpha-3-beta-3-gamma-2 expressed in Xenopus oocytes; type: functional, cell-based; settings: Oocyte
[5] = biological target: T3, GABA A receptor alpha-4/beta-3/gamma-2 (Homo sapiens, UniProt P18507+P28472+P48169); test: Effective agonist dose for human Gamma-aminobutyric acid A receptor alpha-4-beta-3-gamma-2; type: functional
T3 sequence (P48169 whole entry, one chain of several): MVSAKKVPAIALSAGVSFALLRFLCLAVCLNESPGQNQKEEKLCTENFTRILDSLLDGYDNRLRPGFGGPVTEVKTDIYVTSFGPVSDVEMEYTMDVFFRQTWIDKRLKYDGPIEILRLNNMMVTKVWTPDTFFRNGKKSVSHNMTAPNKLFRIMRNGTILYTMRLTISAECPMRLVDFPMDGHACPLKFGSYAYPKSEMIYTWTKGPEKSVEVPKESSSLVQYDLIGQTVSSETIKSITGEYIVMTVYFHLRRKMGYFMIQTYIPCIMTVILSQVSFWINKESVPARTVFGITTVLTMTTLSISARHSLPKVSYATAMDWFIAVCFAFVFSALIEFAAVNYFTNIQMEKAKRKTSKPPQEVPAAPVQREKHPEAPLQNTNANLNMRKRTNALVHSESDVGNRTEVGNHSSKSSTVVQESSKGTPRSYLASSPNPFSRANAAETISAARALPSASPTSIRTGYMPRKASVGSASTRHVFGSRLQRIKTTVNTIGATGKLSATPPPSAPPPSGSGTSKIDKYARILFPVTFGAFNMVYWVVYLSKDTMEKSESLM

[6] = biological target: T4, GABA-A receptor; alpha-6/beta-3/gamma-2 (Homo sapiens, UniProt P18507+P28472+Q16445); test: Effective agonist dose for human Gamma-aminobutyric acid A receptor alpha-6-beta-3-gamma-2; type: functional
T4 sequence (Q16445 whole entry, one chain of several): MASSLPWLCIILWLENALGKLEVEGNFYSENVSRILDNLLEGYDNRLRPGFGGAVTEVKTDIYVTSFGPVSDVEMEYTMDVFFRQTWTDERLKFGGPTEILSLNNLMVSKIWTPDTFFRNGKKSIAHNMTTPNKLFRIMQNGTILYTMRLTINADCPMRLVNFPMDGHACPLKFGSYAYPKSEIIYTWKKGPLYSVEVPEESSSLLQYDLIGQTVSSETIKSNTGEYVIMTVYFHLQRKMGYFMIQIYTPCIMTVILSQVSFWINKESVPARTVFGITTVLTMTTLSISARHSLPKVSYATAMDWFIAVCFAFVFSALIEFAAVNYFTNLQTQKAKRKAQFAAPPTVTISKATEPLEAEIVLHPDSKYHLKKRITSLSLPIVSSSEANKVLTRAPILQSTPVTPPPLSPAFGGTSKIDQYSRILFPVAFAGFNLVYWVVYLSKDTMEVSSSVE

[7] = biological target: T5, GABA-A receptor; alpha-2/beta-3/gamma-2 (Homo sapiens, UniProt P18507+P28472+P47869); test: Agonist activity on human Gamma-aminobutyric acid A receptor alpha-2-beta-3-gamma-2 expressed in Xenopus oocytes; type: functional, cell-based, Oocyte
T5 sequence (P18507 whole entry): T1 sequence (P18507 whole entry)
T5 sequence (P28472 whole entry): T1 sequence (P28472 whole entry)
T5 sequence (P47869 whole entry): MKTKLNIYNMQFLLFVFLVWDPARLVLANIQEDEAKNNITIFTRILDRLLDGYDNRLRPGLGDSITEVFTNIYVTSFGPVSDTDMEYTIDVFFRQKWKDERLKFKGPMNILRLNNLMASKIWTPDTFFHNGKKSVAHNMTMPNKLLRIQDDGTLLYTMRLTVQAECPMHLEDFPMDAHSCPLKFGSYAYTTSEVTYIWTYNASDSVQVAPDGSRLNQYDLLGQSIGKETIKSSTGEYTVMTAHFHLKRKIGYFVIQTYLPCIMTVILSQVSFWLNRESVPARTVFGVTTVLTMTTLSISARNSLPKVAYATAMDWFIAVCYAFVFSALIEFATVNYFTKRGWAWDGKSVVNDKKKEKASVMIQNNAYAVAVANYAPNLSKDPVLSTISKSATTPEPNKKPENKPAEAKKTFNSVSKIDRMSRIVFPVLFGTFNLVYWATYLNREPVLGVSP

[8] = biological target: T6, GABA-A receptor; alpha-3/beta-3/gamma-2 (Homo sapiens, UniProt P18507+P28472+P34903); test: Agonist activity on human Gamma-aminobutyric acid A receptor alpha-3-beta-3-gamma-2 expressed in Xenopus oocytes; type: functional, cell-based, Oocyte
T6 sequence (P18507 whole entry): T1 sequence (P18507 whole entry)
T6 sequence (P28472 whole entry): T1 sequence (P28472 whole entry)
T6 sequence (P34903 whole entry): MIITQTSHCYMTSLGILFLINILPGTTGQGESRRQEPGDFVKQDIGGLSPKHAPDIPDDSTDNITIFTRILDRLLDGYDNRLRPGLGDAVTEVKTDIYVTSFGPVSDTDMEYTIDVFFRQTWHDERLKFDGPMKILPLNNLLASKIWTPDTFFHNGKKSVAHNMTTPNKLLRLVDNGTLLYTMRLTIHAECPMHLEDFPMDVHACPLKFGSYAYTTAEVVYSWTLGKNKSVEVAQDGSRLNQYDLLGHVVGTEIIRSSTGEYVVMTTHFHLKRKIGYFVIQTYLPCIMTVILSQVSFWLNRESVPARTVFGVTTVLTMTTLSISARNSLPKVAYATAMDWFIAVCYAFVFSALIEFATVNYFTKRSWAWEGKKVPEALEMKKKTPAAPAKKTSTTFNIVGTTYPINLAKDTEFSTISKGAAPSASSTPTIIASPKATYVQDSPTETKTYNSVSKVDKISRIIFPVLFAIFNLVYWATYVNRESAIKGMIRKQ

[9] = biological target: T3, GABA A receptor alpha-4/beta-3/gamma-2; test: Maximal response relative to Gamma-aminobutyric acid A against human Gamma-aminobutyric-acid A receptor alpha-4-beta-3-gamma-2 expressed in Xenopus oocytes; type: functional, cell-based; settings: Oocyte
[10] = biological target: GABA-A receptor; alpha-2/beta-3/gamma-2 (Homo sapiens) (UniProt P18507+P28472+P47869); test: Maximal response relative to Gamma-aminobutyric acid A against human Gamma-aminobutyric-acid A receptor alpha-2-beta-3-gamma-2 expressed in Xenopus oocytes; type: functional, cell-based; settings: Oocyte
[11] = biological target: T4, GABA-A receptor; alpha-6/beta-3/gamma-2; test: Maximal response relative to Gamma-aminobutyric acid A against human Gamma-aminobutyric-acid A receptor alpha-6-beta-3-gamma-2 expressed in Xenopus oocytes; type: functional, cell-based; settings: Oocyte
[12] = biological target: GABA-A receptor; alpha-5/beta-3/gamma-2 (Homo sapiens) (UniProt P18507+P28472+P31644); test: Maximal response relative to Gamma-aminobutyric acid A against human Gamma-aminobutyric-acid A receptor alpha-5-beta-3-gamma-2 expressed in Xenopus oocytes; type: functional, cell-based; settings: Oocyte
[13] = biological target: T1, GABA-A receptor; alpha-1/beta-3/gamma-2; test: Antagonistic potency against human Gamma-aminobutyric acid A receptor alpha-1-beta-3-gamma-2 expressed in Xenopus oocytes at 1 mM; type: functional, cell-based, Oocyte
[14] = biological target: T2, GABA-A receptor; alpha-5/beta-3/gamma-2; test: Antagonistic potency against human Gamma-aminobutyric acid A receptor alpha-5-beta-3-gamma-2 expressed in Xenopus oocytes at 1 mM; type: functional, cell-based, Oocyte
[15] = biological target: T5, GABA-A receptor; alpha-2/beta-3/gamma-2; test: Antagonistic potency against human Gamma-aminobutyric acid A receptor alpha-2-beta-3-gamma-2 expressed in Xenopus oocytes at 1 mM; type: functional, cell-based, Oocyte
[16] = biological target: T6, GABA-A receptor; alpha-3/beta-3/gamma-2; test: Antagonistic potency against human Gamma-aminobutyric acid A receptor alpha-3-beta-3-gamma-2 expressed in Xenopus oocytes at 1 mM; type: functional, cell-based, Oocyte
[17] = biological target: T3, GABA A receptor alpha-4/beta-3/gamma-2; test: Antagonistic potency against human […] Gamma-aminobutyric acid A receptor alpha-4-beta-3-gamma-2; type: functional
[18] = biological target: T4, GABA-A receptor; alpha-6/beta-3/gamma-2; test: Antagonistic potency against human Gamma-aminobutyric acid A receptor alpha-6-beta-3-gamma-2 expressed in Xenopus oocytes at 1 mM; type: functional, cell-based, Oocyte
[19] = biological target: T6, GABA-A receptor; alpha-3/beta-3/gamma-2; test: Effective dose for agonist activity on activity on human Gamma-aminobutyric acid A receptor alpha-3-beta-3-gamma-2 expressed in Xenopus oocytes; type: functional, cell-based, Oocyte

NCCC[Se](=O)O
EC50 [1]: 1400 µM | EC50 [2]: 1900 µM | Max [3]: 30 | Max [4]: 33 | EC50 [5]: 2100 µM | EC50 [6]: 3000 µM | EC50 [7]: 1500 µM | EC50 [8]: 4900 µM | Max [9]: 16 | Max [10]: 47 | Max [11]: 51 | Max [12]: 58

O=S(=O)(O)C1CCNCC1
EC50 [1]: 40 µM | EC50 [2]: 20 µM | Max [3]: 21 | Max [4]: 75 | EC50 [5]: 200 µM | EC50 [6]: 20 µM | EC50 [7]: 26 µM | EC50 [8]: 65 µM | Max [9]: 7.2 | Max [10]: 96 | Max [11]: 15 | Max [12]: 92

CP(=O)(O)C1CCNCC1
Ki [13]: 310 µM | Ki [14]: 420 µM | Ki [15]: 600 µM | Ki [16]: 300 µM | Ki [17]: 340 µM | Ki [18]: 460 µM

O=C(O)C1CCNCC1 [ISONIPECOTIC ACID]
EC50 [1]: 620 µM | EC50 [2]: 690 µM | Max [3]: 46 | Max [4]: 46 | EC50 [5]: 300 µM | EC50 [6]: 160 µM | EC50 [7]: 420 µM | EC50 [19]: 370 µM | Max [9]: 104 | Max [10]: 53 | Max [11]: 83 | Max [12]: 57

O=[PH](O)C1(O)CCNCC1
Ki [13]: 1400 µM | Ki [14]: 1900 µM | Ki [15]: 1500 µM | Ki [16]: 4900 µM | Ki [17]: 2100 µM | Ki [18]: 3000 µM

O=P(O)(O)C1CCNCC1
Ki [13]: 3300 µM | Ki [14]: 2800 µM | Ki [15]: 2100 µM | Ki [16]: 3800 µM | Ki [17]: 3100 µM | Ki [18]: 4800 µM

O=C(O)Cc1c[nH]cn1 [IMIDAZOLE ACETIC ACID]
EC50 [1]: 310 µM | EC50 [2]: 420 µM | Max [3]: 24 | Max [4]: 54 | EC50 [5]: 340 µM | EC50 [6]: 460 µM | EC50 [7]: 600 µM | EC50 [8]: 300 µM | Max [9]: 27 | Max [10]: 72 | Max [11]: 25 | Max [12]: 56

O=C(O)C1=CCNCC1 [ISOGUVACINE]
EC50 [1]: 160 µM | EC50 [2]: 75 µM | Max [3]: 88 | Max [4]: 69 | EC50 [5]: 180 µM | EC50 [6]: 20 µM | EC50 [7]: 50 µM | EC50 [8]: 55 µM | Max [9]: 88 | Max [10]: 88 | Max [11]: 98 | Max [12]: 94

O=[PH](O)C1CCNCC1
EC50 [1]: 270 µM | EC50 [2]: 260 µM | Max [3]: 5 | Max [4]: 29 | EC50 [5]: 140 µM | EC50 [6]: 140 µM | EC50 [7]: 280 µM | EC50 [8]: 160 µM | Max [9]: 0 | Max [10]: 17 | Max [11]: 35 | Max [12]: 17
